Test results: patent US10584116B2, “Heterocyclic sulfonamide derivative and medicine containing same” (EA Pharma Co., Ltd., priority 2016, dated 2020)

Molecular target: human TRPA1 (Homo sapiens (Human), UniProt O75762)
Assay: Measurement of TRPA1 antagonist activity (intracellular calcium increase induced by allylisothiocyanate in 293T cells transfected with human TRPA1)
Format: cell-based
Details: 293T cells expressing human TRPA1, allylisothiocyanate stimulation, FLIPR Calcium4 fluorescence; read-out: hTRPA1 IC50
Procedure: Measurement of TRPA1 Antagonist Activity
Human TRPA1 Expression Plasmid
Using cDNA encoding human TRPA1 (GenBank accession No. NM_007332) (manufactured by Kazusa DNA Research Institute, item No. FHC07217) as a template, primer 1 (SEQ ID NO: 1) and primer 2 (SEQ ID NO: 2), PCR by PfuUltra High-Fidelity DNA Polymerase (Stratagene) was performed, and full-length human TRPA1 gene was amplified.
A recognition site (underlined) of restriction enzyme HindIII was added to the 5′ end of human TRPA1 gene, and XbaI site (underlined) was added to the 3′ end of human TRPA1 gene, and GTT of the template sequence was changed to termination codon TAG (bold). The obtained double stranded DNA was enzyme-digested with HindIII and XbaI, and introduced into a multicloning site of expression plasmid pcDNA3.1/zeo(+) (manufactured by Invitrogen) to give a human TRPA1 expression plasmid.
Human embryonic kidney-derived 293T cells were cultured in Dulbecco's Modified Eagle Medium containing 10% fetal bovine serum, 10 unit penicillin, and 10 μg streptomycin. One day before assay, 3×10^6 of 293T cells were plated on a petri dish having a diameter of 10 cm, and cultured in a CO2 incubator for 24 hr. OPTI-MEM I Reduced Serum Media (Invitrogen) (600 μL), Mirus TransIT-293 (Mirus Bio) (18 μL), and human TRPA1 expression plasmid (6 μg) were mixed, the total amount of the mixture was added to the cells on the petri dish to allow for gene transfer. The cells were recovered about for 8 hr later, plated on a poly-D-lysine coated 384 well black/clear bottom plate at 12,000 cells/well, and cultured overnight.
Measurement of Intracellular Calcium Increase
The medium was removed from the 384 well plate, calcium indicator (Molecular Device, trade name: FLIPR Calcium4 Assay Kit) dissolved in HBSS (Thermo Fisher Scientific) (pH 7.2) containing 20 mM HEPES was added (38 μL/well), and the cells were stained in a CO2 incubator for 1 hr. The 384 well plate was stood at room temperature for not less than 15 min, set on FDSS7000 (Hamamatsu Photonics K.K.), and a test substance solution was added at 10 μL/well. After 10 min, allylisothiocyanate solution (12 μL/well) was added, the relative fluorescence intensity was measured for 5 min after addition of the allylisothiocyanate solution.
Test Substance Preparation
Preparation of Test Substance Solution and Allylisothiocyanate Solution
A test substance solution was prepared to have a composition of HBSS (Thermo Fisher Scientific) (pH 7.2) containing 0.48% dimethyl sulfoxide, a test substance at 4.8-fold concentration of the evaluation concentration, 0.1% bovine serum albumin and 20 mM HEPES. An allylisothiocyanate solution was prepared to have a composition of HBSS (Thermo Fisher Scientific) (pH 7.2) containing 0.1% dimethyl sulfoxide, 100 μM allylisothiocyanate, 0.1% bovine serum albumin and 20 mM HEPES.
Calculation of Antagonist Activity
The activity rate of a test substance at each concentration was calculated, wherein the relative fluorescence intensity change of a well free of a test substance and containing allylisothiocyanate is 100% activity rate, and the relative fluorescence intensity change of a well free of a test substance and allylisothiocyanate is 0% activity rate. The inhibitory rate of a test substance at each concentration was calculated by subtracting the activity rate of the test substance from 100% activity rate, and the concentration of a test substance showing 50% inhibitory rate was calculated as IC50 from the sigmoid approximate curve by XLfit (idbs).

Chain of human TRPA1 (O75762 whole entry): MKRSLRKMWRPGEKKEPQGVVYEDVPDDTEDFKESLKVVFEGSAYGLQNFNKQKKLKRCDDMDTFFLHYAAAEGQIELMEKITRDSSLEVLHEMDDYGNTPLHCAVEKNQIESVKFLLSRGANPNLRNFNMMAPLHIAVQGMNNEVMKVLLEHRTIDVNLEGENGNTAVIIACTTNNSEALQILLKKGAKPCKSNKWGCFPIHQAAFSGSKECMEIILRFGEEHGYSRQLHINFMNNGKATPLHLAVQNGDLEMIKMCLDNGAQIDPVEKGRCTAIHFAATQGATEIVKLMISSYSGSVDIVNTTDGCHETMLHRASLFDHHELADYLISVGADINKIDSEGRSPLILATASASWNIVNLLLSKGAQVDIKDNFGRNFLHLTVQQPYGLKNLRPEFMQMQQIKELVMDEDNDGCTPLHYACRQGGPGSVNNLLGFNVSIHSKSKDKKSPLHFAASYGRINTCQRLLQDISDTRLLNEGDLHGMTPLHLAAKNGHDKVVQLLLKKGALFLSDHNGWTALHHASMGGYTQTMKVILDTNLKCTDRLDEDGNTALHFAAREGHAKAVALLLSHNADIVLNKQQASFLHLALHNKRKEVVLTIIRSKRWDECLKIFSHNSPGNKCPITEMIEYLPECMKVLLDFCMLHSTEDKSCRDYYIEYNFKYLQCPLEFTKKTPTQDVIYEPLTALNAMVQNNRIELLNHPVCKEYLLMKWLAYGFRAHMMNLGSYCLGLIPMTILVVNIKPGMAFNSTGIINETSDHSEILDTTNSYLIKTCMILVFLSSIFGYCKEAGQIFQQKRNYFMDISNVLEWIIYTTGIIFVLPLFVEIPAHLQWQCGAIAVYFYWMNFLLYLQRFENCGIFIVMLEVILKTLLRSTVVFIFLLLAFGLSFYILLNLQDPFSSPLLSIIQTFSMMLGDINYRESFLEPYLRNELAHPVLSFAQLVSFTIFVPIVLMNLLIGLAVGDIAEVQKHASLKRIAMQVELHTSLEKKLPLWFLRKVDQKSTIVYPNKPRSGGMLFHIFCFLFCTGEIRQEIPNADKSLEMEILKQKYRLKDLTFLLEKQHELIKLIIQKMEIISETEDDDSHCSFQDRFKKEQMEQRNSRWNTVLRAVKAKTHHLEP

| Compound | IC50 |
| --- | --- |
| CCn1c(=O)c(CNC(=O)[C@@H]2CCCN2S(=O)(=O)c2cc3ccccc3o2)cn(-c2ccc(C(F)(F)F)cc2)c1=O [Example 2, (2S)-1-(benzofuran-2-ylsulfonyl)-N-[[3-ethyl-2,4-dioxo-1-[4-(trifluoromethyl)phenyl]pyrimidin-5-yl]methyl]pyrrolidine-2-carboxamide] | 26 nM |
| CC(C)n1c(=O)c(CNC(=O)[C@@H]2CCCN2S(=O)(=O)c2cc3cnccc3o2)cn(-c2ccc(C(F)(F)F)cn2)c1=O [Example 36, (2S)-1-fro[3,2-c]pyridin-2-ylsulfonyl-N-[[3-isopropyl-2,4-dioxo-1-[5-(trifluoromethyl)-2-pyridyl]pyrimidin-5-yl]methyl]pyrrolidine-2-carboxamide] | 200 nM |
| CC(C)n1cc(CNC(=O)[C@@H]2CCCN2S(=O)(=O)c2cc3cc(F)ccc3o2)cc(-c2ccc(C(F)(F)F)nc2)c1=O [Example 49, (2S)-1-(5-fluorobenzofuran-2-yl)sulfonyl-N-[[1-isopropyl-6-oxo-5-[6-(trifluoromethyl)-3-pyridyl]-3-pyridyl]methyl]pyrrolidine-2-carboxamide] | 45 nM |
| CC(C)n1c(=O)c(CNC(=O)[C@@H]2CCCN2S(=O)(=O)c2cc3ccccc3o2)cn(-c2ccc(F)cc2)c1=O [Example 38, (2S)-1-(benzofuran-2-ylsulfonyl)-N-[[1-(4-fluorophenyl)-3-isopropyl-2,4-dioxo-pyrimidin-5-yl]methyl]pyrrolidine-2-carboxamide] | 240 nM |
| O=C(NCc1cn(-c2ccc(C(F)(F)F)cc2)c(=O)n(C2CCOCC2)c1=O)[C@@H]1CCCN1S(=O)(=O)c1cc2ccccc2o1 [Example 9, (2S)-1-(benzofuran-2-ylsulfonyl)-N-[[2,4-dioxo-3-tetrahydropyran-4-yl-1-[4-(trifluoromethyl)phenyl]-pyrimidin-5-yl]methyl]pyrrolidine-2-carboxamide] | 140 nM |
| CC(C)n1cc(CNC(=O)[C@@H]2CCCN2S(=O)(=O)c2cc3ccccc3o2)cc(-c2ccc(C(F)(F)F)cn2)c1=O [Example 50, (2S)-1-(benzofuran-2-ylsulfonyl)-N-[[1-isopropyl-6-oxo-5-[5-(trifluoromethyl)-2-pyridyl]-3-pyridyl]methyl]pyrrolidine-2-carboxamide] | 110 nM |
| CC(C)n1cc(-c2ccc(C(F)(F)F)cn2)cc(CNC(=O)[C@@H]2CCCN2S(=O)(=O)c2cc3cc(F)ccc3o2)c1=O [Example 43, (2S)-1-(5-fluorobenzofuran-2-yl)sulfonyl-N-[[1-isopropyl-2-oxo-5-[5-(trifluoromethyl)-2-pyridyl]-3-pyridyl]methyl]pyrrolidine-2-carboxamide] | 23 nM |
| Cc1ccc2oc(S(=O)(=O)N3CCC[C@H]3C(=O)NCc3cn(-c4ccc(C(F)(F)F)cc4)c(=O)n(C(C)C)c3=O)cc2c1 [Example 25, (2S)-N-[[3-isopropyl-2,4-dioxo-1-[4-(trifluoromethyl)phenyl]pyrimidin-5-yl]methyl]-1-(5-methylbenzofuran-2-yl)sulfonyl-pyrrolidine-2-carboxamide] | 420 nM |
| CC(C)n1cc(CNC(=O)[C@@H]2CCCN2S(=O)(=O)c2cc3cnccc3o2)cc(-c2ccc(C(F)(F)F)cc2)c1=O [Example 46, (2S)-1-fro[3,2-c]pyridin-2-ylsulfonyl-N-[[1-isopropyl-6-oxo-5-[4-(trifluoromethyl)phenyl]-3-pyridyl]methyl]pyrrolidine-2-carboxamide] | 98 nM |
| CC(C)n1c(=O)c(CNC(=O)[C@@H]2CCCN2S(=O)(=O)c2cc3cnccc3o2)cn(-c2ccc(C(F)(F)F)cc2)c1=O [Example 23, (2S)-1-fro[3,2-c]pyridin-2-ylsulfonyl-N-[[3-isopropyl-2,4-dioxo-1-[4-(trifluoromethyl)phenyl]-pyrimidin-5-yl]methyl]pyrrolidine-2-carboxamide] | 20 nM |
| CC(C)n1c(=O)c(CNC(=O)[C@@H]2CCCN2S(=O)(=O)c2cc3ccccc3o2)cn(-c2ccc(C(F)(F)F)cn2)c1=O [Example 33, (2S)-1-(benzofuran-2-ylsulfonyl)-N-[[3-isopropyl-2,4-dioxo-1-[5-(trifluoromethyl)-2-pyridyl]pyrimidin-5-yl]methyl]pyrrolidine-2-carboxamide] | 44 nM |
| CC(C)n1c(=O)c(CNC(=O)[C@@H]2[C@@H](O)CCN2S(=O)(=O)c2cc3cc(F)ccc3o2)cn(-c2ccc(C(F)(F)F)cn2)c1=O [Example 35, (2S,3S)-1-(5-fluorobenzofuran-2-yl)sulfonyl-3-hydroxy-N-[[3-isopropyl-2,4-dioxo-1-[5-(trifluoromethyl)-2-pyridyl]pyrimidin-5-yl]methyl]pyrrolidine-2-carboxamide] | 160 nM |
| CC(C)n1cc(CNC(=O)[C@@H]2CCCN2S(=O)(=O)c2cc3ccccc3o2)cc(-c2ccc(C(F)(F)F)cc2)c1=O [Example 13, (2S)-1-(benzofuran-2-ylsulfonyl)-N-[[1-isopropyl-6-oxo-5-[4-(trifluoromethyl)phenyl]-3-pyridyl]methyl]pyrrolidine-2-carboxamide] | 27 nM |
| CC(C)n1c(=O)c(CNC(=O)[C@@H]2CCCN2S(=O)(=O)c2cc3ccccc3o2)cn(-c2ccc(Cl)cc2)c1=O [Example 40, (2S)-1-(benzofuran-2-ylsulfonyl)-N-[[1-(4-chlorophenyl)-3-isopropyl-2,4-dioxo-pyrimidin-5-yl]methyl]pyrrolidine-2-carboxamide] | 85 nM |
| CC(C)n1c(=O)c(CNC(=O)[C@@H]2[C@@H](O)CCN2S(=O)(=O)c2cc3cc(F)ccc3o2)cn(-c2ccc(C(F)(F)F)cc2)c1=O [Example 8, (2S,3S)-1-(5-fluorobenzofuran-2-yl)sulfonyl-3-hydroxy-N-[[3-isopropyl-2,4-dioxo-1-[4-(trifluoromethyl)phenyl]pyrimidin-5-yl]methyl]pyrrolidine-2-carboxamide] | 64 nM |
| CC(C)n1cc(-c2ccc(C(F)(F)F)cc2)cc(CNC(=O)[C@@H]2CCCN2S(=O)(=O)c2cc3ccccc3o2)c1=O [Example 15, (2S)-1-(benzofuran-2-ylsulfonyl)-N-[[1-isopropyl-2-oxo-5-[4-(trifluoromethyl)phenyl]-3-pyridyl]methyl]pyrrolidine-2-carboxamide] | 79 nM |
| CC(C)n1c(=O)c(CNC(=O)[C@@H]2CCCN2S(=O)(=O)c2cc3cc(F)ccc3o2)cn(-c2ccc(C(F)(F)F)nc2)c1=O [Example 30, (2S)-1-(5-fluorobenzofuran-2-yl)sulfonyl-N-[[3-isopropyl-2,4-dioxo-1-[6-(trifluoromethyl)-3-pyridyl]pyrimidin-5-yl]methyl]pyrrolidine-2-carboxamide] | 10 nM |
| CC(C)n1c(=O)c(CNC(=O)[C@@H]2CC(F)(F)CN2S(=O)(=O)c2cc3cc(F)ccc3o2)cn(-c2ccc(C(F)(F)F)cc2)c1=O [Example 17, (2S)-4,4-difluoro-1-(5-fluorobenzofuran-2-yl)sulfonyl-N-[[3-isopropyl-2,4-dioxo-1-[4-(trifluoromethyl)phenyl]pyrimidin-5-yl]methyl]pyrrolidine-2-carboxamide] | 46 nM |
| CC(C)n1c(=O)c(CNC(=O)[C@@H]2CCCN2S(=O)(=O)c2cc3ccccc3s2)cn(-c2ccc(C(F)(F)F)cc2)c1=O [Example 19, (2S)-1-(benzothiophen-2-ylsulfonyl)-N-[[3-isopropyl-2,4-dioxo-1-[4-(trifluoromethyl)phenyl]-pyrimidin-5-yl]methyl]pyrrolidine-2-carboxamide] | 56 nM |
